Measured values from US7166688B1, “Chelation compositions” (LidoChem, Inc., priority 2000, dated 2007).

What was measured:
Format in all cases: in vivo
Clover [1] = assay: Foliar applied IDS chelated minerals, tissue analysis, clover
Procedure: (§1) An experimental trial was completed testing the efficacy of the Iminodisuccinates (IDS) of this invention on five different crops. Below is the protocol and tissue analysis for both soil and foliar applied iminodisuccinate chelated mineral salts.
(§2) A stock solution for foliar application was prepared by blending 6000 ml of water with T-DAT 09, (Harcross Chemical Company, USA) a surfactant, added to spray mix at 2 drops per liter. • 1). 5 ml of 9% zinc was added to 1 liter of stock solution. • 2). 5 ml of 5% copper was added to 1 liter of stock solution. • 3). 5 ml of 5% manganese was added to 1 liter of stock solution. • 4). 5 ml of 5% Iron was added to 1 liter of stock solution. • 5). 4 ml of 9% zinc, 1 ml of 5% copper, 1 ml of 5% manganese, and 1 ml of 5% iron was added to 1 liter of stock solution. • 6). Stock solution without further addition.
(§3) All plants were sprayed until wet. Harvested material was placed in an oven for one day and sent to the lab for tissue analysis. Harvesting occurred thirty days after planting and some plants had not grown enough to get complete lab results reported. The harvested corn plants were cut at the whirl to insure only new leaves would be tested. The soybeans were clipped above the cotyledon. The alfalfa and clover were removed from the soil and the roots were removed. The wheat was cut at the tillering node.

Wheat [2] = assay: Foliar applied IDS chelated minerals, tissue analysis, wheat
Procedure: as §1, §2, §3

Clover [3] = assay: Soil applied IDS chelated minerals with 10-34-0, tissue analysis, clover
Procedure: as §1
(§4) A). The control pots were watered without any further treatments.
(§5) B). An ammonium polyphosphate stock solution was prepared by adding 50 ml of the 10-34-0 to 4000 ml of water. Treated plants received 100 ml of the stock solution.
(§6) (C). The Zinc stock solution was prepared by blending 10 ml of IDS chelated 9% Zinc to a blend of 50 ml of 10-34-0 with 4000 ml of water. Treated plants received 100 ml of the zinc stock solution.
(§7) (D). The mixture of IDS chelated micronutrients was prepared by adding 4 ml of 9% Zinc, 1 ml of 5% Copper, 1 ml of 5% manganese, and 1 ml of 5% Iron. This mixture was then blended with 4000 ml of water and 50 ml of 10-34-0.
as §3

Corn [4] = assay: Soil applied IDS chelated minerals with 10-34-0, tissue analysis, corn
Procedure: as §1, §4, §5, §6, §7, §3

Soybean = assay: Foliar applied IDS chelated minerals, tissue analysis, soybeans
Procedure: as §1, §2, §3

Corn [5] = assay: Foliar applied IDS chelated minerals, tissue analysis, corn
Procedure: as §1, §2, §3

Wheat [6] = assay: Soil applied IDS chelated minerals with 10-34-0, tissue analysis, wheat
Procedure: as §1, §4, §5, §6, §7, §3

pepper plants = assay: IDS versus EDTA chelates applied to the soil of pepper plants, tissue analysis
Procedure: Below is the protocol and tissue analysis for the soil-applied iminodisuccinate and EDTA chelated mineral salts. Treatments: Control—no fertilizer 15-30-15 (fertilizer) alone 15-30-15 plus Cu IDS […] 15-30-15 plus Mn IDS […] 15-30-15 plus Zn IDS […] The standard fertilizer contained no micronutrients. Fertilizer was Hyponex 15-30-15. Each treatment was replicated 3 times. Soil treatments were applied as 50 ml per of the dilute blend of this invention. The pepper plants were transplanted into 1-gallon containers and grown until a suitable size. Plants were treated with the soil-applied chelate. Tissue samples were taken 30 days after the soil treatment had been applied. […] One gallon of fertilizer was poured over three replications of each set in the trial.

[Mn+2]
manganese in plant tissue, TREATED (Clover [1]; harvested 30 days after planting, control 168): 510 parts per million | manganese in plant tissue, CHANGE (Clover [1]; treated minus control 168): 342 parts per million | manganese in plant tissue, TREATED (Wheat [2]; harvested 30 days after planting, control 72.1): 379 parts per million | manganese in plant tissue, CHANGE (Wheat [2]; treated minus control 72.1): 306.9 parts per million | manganese in plant tissue, TREATED (Clover [3]; soil applied with 10-34-0, harvested 30 days after planting, control 154): 98.4 | manganese in plant tissue, TREATED (Corn [4]; soil applied with 10-34-0, harvested 30 days after planting, control 128): 80.1 | manganese in plant tissue, TREATED (Soybean; harvested 30 days after planting, control 230): 544 parts per million | manganese in plant tissue, CHANGE (Soybean; treated minus control 230): 314 parts per million | manganese in plant tissue, % change (Soybean; versus control 230): 137% | manganese in plant tissue, TREATED (Corn [5]; harvested 30 days after planting, control 99.1): 310 parts per million | manganese in plant tissue, CHANGE (Corn [5]; treated minus control 99.1): 210.9 parts per million | manganese in plant tissue, % change (Corn [5]; versus control 99.1): 213% | manganese in plant tissue, TREATED (Wheat [6]; soil applied with 10-34-0, harvested 30 days after planting, control 71.8): 76.2 | manganese in plant tissue, CHANGE (Wheat [6]; soil applied, treated minus control 71.8): 4.4 | manganese in plant tissue, % change (Wheat [6]; soil applied, versus control 71.8): 6%

COPPER
copper in plant tissue, TREATED (Clover [1]; harvested 30 days after planting, control 9.64): 227 parts per million | copper in plant tissue, CHANGE (Clover [1]; treated minus control 9.64): 217.36 parts per million | copper in plant tissue, TREATED (Wheat [2]; harvested 30 days after planting, control 10.8): 157 parts per million | copper in plant tissue, CHANGE (Wheat [2]; treated minus control 10.8): 146.2 parts per million | copper in plant tissue, TREATED (Clover [3]; soil applied with 10-34-0, harvested 30 days after planting, control 8.91): 20.2 | copper in plant tissue, CHANGE (Clover [3]; soil applied, treated minus control 8.91): 11.29 | copper in plant tissue, % change (Clover [3]; soil applied, versus control 8.91): 127% | copper in plant tissue, TREATED (Corn [4]; soil applied with 10-34-0, harvested 30 days after planting, control 5.43): 11.7 | copper in plant tissue, CHANGE (Corn [4]; soil applied, treated minus control 5.43): 6.27 | copper in plant tissue, % (Corn [4]; soil applied, versus control 5.43): 115% | copper in plant tissue, TREATED (Soybean; harvested 30 days after planting, control 4.74): 937 parts per million | copper in plant tissue, CHANGE (Soybean; treated minus control 4.74): 932.26 parts per million | copper in plant tissue, TREATED (Corn [5]; harvested 30 days after planting, control 5.2): 300 parts per million | copper in plant tissue, CHANGE (Corn [5]; treated minus control 5.2): 294.8 parts per million | copper in plant tissue, % change (Corn [5]; versus control 5.2): 5669% | copper in plant tissue, TREATED (Wheat [6]; soil applied with 10-34-0, harvested 30 days after planting, control 6.79): 12.1 | copper in plant tissue, CHANGE (Wheat [6]; soil applied, treated minus control 6.79): 5.31 | copper in plant tissue, % change (Wheat [6]; soil applied, versus control 6.79): 78%

EDTA [reference compound]
copper in tissue, TREATED (pepper plants; soil applied with 15-30-15, tissue 30 days after treatment, control 8.0): 12.9 | TREATED (dry weight) (pepper plants; soil applied, control 4.8): 6.2 | TREATED DRY (pepper plants; soil applied, dry weight, CONTROL DRY 4.8): 6.1 | copper in tissue, TREATED ADJUSTED (pepper plants; soil applied, tissue level times dry weight, control adjusted 38.08): 80.03 | copper in tissue, CHANGE IN (adjusted) (pepper plants; soil applied, treated adjusted minus control adjusted 38.08): 41.95 | CHANGE IN WEIGHT (pepper plants; soil applied, treated dry minus control dry 4.8): 1.36 | copper in tissue, % CHANGE (adjusted) (pepper plants; soil applied, versus control adjusted 38.08): 110% | % CHANGE (dry weight) (pepper plants; soil applied, versus control dry 4.8): 29%

IRON
iron in plant tissue, TREATED (Clover [1]; harvested 30 days after planting, control 130): 731 parts per million | iron in plant tissue, CHANGE (Clover [1]; treated minus control 130): 601 parts per million | iron in plant tissue, TREATED (Wheat [2]; harvested 30 days after planting, control 94.5): 334 parts per million | iron in plant tissue, CHANGE (Wheat [2]; treated minus control 94.5): 239.5 parts per million | iron in plant tissue, TREATED (Clover [3]; soil applied with 10-34-0, harvested 30 days after planting, control 143): 224 | iron in plant tissue, CHANGE (Clover [3]; soil applied, treated minus control 143): 81 | iron in plant tissue, % change (Clover [3]; soil applied, versus control 143): 57% | iron in plant tissue, TREATED (Corn [4]; soil applied with 10-34-0, harvested 30 days after planting, control 45.4): 82.2 | iron in plant tissue, CHANGE (Corn [4]; soil applied, treated minus control 45.4): 36.8 | iron in plant tissue, % (Corn [4]; soil applied, versus control 45.4): 81% | iron in plant tissue, TREATED (Soybean; harvested 30 days after planting, control 111): 557 parts per million | iron in plant tissue, CHANGE (Soybean; treated minus control 111): 446 parts per million | iron in plant tissue, % change (Soybean; versus control 111): 402% | iron in plant tissue, TREATED (Corn [5]; harvested 30 days after planting, control 36.9): 494 parts per million | iron in plant tissue, CHANGE (Corn [5]; treated minus control 36.9): 457.1 parts per million | iron in plant tissue, % change (Corn [5]; versus control 36.9): 1239% | iron in plant tissue, TREATED (Wheat [6]; soil applied with 10-34-0, harvested 30 days after planting, control 79.3): 90.9 | iron in plant tissue, CHANGE (Wheat [6]; soil applied, treated minus control 79.3): 11.6 | iron in plant tissue, % change (Wheat [6]; soil applied, versus control 79.3): 15%
